Source: PubChem BioAssay AID1996
Converted amounts (≈) assume the structure as drawn.

conditions: buffer; pH 7.4; 200.0 µM

solubility kinetic [µg/mL] | Compound
24.6 (≈ 118 µM) | O=[N+]([O-])c1ccc(Cl)c2cccnc12
15.6 (≈ 33.4 µM) | CCOC(=O)C1CCN(C(=O)CN2C(=O)NC(C)(c3ccc4cc(OC)ccc4c3)C2=O)CC1 (stereo unspecified)
> 38.9 | CC(NC(=O)c1ccco1)c1ccc2c(c1)OCO2 (stereo unspecified)
35.4 (≈ 105 µM) | O=C(O)c1cccc([N+](=O)[O-])c1C(=O)Nc1ccc2ccccc2c1
> 44.1 | Nc1nc(NCc2ccco2)nc(NCCO)c1[N+](=O)[O-]
4.5 (≈ 13.2 µM) | O=C(Nc1cccc(NC(=O)c2ccc([N+](=O)[O-])o2)c1)c1ccco1
12.7 (≈ 41.6 µM) | O=C(Nc1ccc2oc(-c3ccncc3)nc2c1)c1ccco1
> 31.7 | Nc1cccc(-c2nc3ncccc3o2)c1
< 0.4 | O=C(/C(=C(\O)c1ccccc1)c1nc2ccccc2[nH]1)c1ccccc1
4.8 (≈ 17 µM) | Cc1ccc(C(=O)Nc2cc3[nH]c(=O)oc3cc2C)cc1
10.9 (≈ 24.4 µM) | CCCCCOc1ccc(C(=O)CCC(=O)NC(C)c2ccc(S(N)(=O)=O)cc2)cc1 (stereo unspecified)
31.1 (≈ 93.7 µM) | COc1ccc(Cl)cc1S(=O)(=O)n1c([N+](=O)[O-])cnc1C
5 (≈ 15.8 µM) | CS(=O)(=O)Oc1ccc2c(c1)O/C(=C\c1cccnc1)C2=O
> 47.9 | CC(C)Oc1ccc(C(CC(=O)N2CCOCC2)C(C)C)cc1 (stereo unspecified)
6.8 (≈ 19.9 µM) | Cc1onc(NC(=O)NC(=O)c2ccccc2F)c1Br
> 52.8 | Cc1noc(C)c1C(=O)NCC(=O)Nc1ccccc1Br
44.4 (≈ 128 µM) | CCOc1cccc(CN2CCC(CCC(=O)NC3CC3)CC2)c1O
23.5 (≈ 66.1 µM) | Cc1ccc(N2CC(C(=O)OCC(=O)c3ccc(F)cc3)CC2=O)cc1 (stereo unspecified)
31.4 (≈ 134 µM) | COc1cccc(C(=O)NC2CCNCC2)c1
2.3 (≈ 5.31 µM) | O=S(=O)(Nc1ccccc1N1CCOCC1)c1c(F)cc(F)cc1Br
< 0.2 | COc1ccccc1C1CCN(c2ccc([N+](=O)[O-])cn2)CC1
7.8 (≈ 34.9 µM) | Cc1ccc(N2Cc3ccccc3C2=O)cc1

solubility kinetic [µg/mL] | Compound
> 46.9 | O=C(/C=C/c1ccco1)Nc1ccc(CN2CCOCC2)cc1
> 42.7 | CCS(=O)(=O)N1CCN=C1SCc1ccccc1
14.1 (≈ 36.2 µM) | O=C(/C=C/c1ccccc1)N(Cc1cccc(Cl)c1)C1CCS(=O)(=O)C1 (stereo unspecified)
> 50.5 | O=C(Nc1ccc(Cl)cc1F)C1CC(=O)N(Cc2ccco2)C1 (stereo unspecified)
8.7 (≈ 32.7 µM) | Cc1cccc(-n2cc(-c3ccccc3)[nH]c2=S)c1
38.5 | CC(CC12CC3CC(CC(C3)C1)C2)NCc1ccccc1O.Cl (stereo unspecified)
> 44.6 | CCN(CC)CC(=O)Nc1c(C#N)cnn1-c1ccccc1
< 0.4 | O=C(Oc1ccc(C(=S)N2CCOCC2)cc1)c1cccc([N+](=O)[O-])c1
6.2 (≈ 22 µM) | CC1Cc2ccccc2N1C(=O)/C=C/c1cccc(F)c1 (stereo unspecified)
39.6 (≈ 145 µM) | CC(=O)Nc1nc(C)c(Oc2ccc(C)cc2)c(=O)[nH]1
25 (≈ 76.1 µM) | C=CCn1c(SCc2ccccc2)nc2c1c(=O)[nH]c(=O)n2C
> 37.8 | O=C1CC(Sc2ncccc2C(=O)O)C(=O)N1 (stereo unspecified)
> 51.7 | O=C(O)C1CCc2sc3[nH]c(=S)n(-c4ccccc4)c(=O)c3c21 (stereo unspecified)
> 36 | O=C1Nc2ccccc2C1=Nc1ccc(F)cc1
19.2 (≈ 66.8 µM) | Cc1cc(C(=O)Nc2ccccc2N2CCOCC2)no1
1 (≈ 2.95 µM) | CCCCNS(=O)(=O)c1ccc(NC(=O)c2cccs2)cc1
30.8 (≈ 104 µM) | Cc1ccc(OCCCn2ccnc2)c(Br)c1
> 46.2 | CC(Cl)C(=O)Nc1c2c(nn1-c1ccccc1)CSC2 (stereo unspecified)
1 (≈ 2.62 µM) | O=C(CSc1ccc(Cl)cc1)Nc1ccc(C2SCCS2)cc1
20.3 (≈ 42.7 µM) | COc1ccccc1NS(=O)(=O)c1ccc(C(=O)NCc2ccc(S(N)(=O)=O)cc2)cc1
> 42.9 | CC(=O)OCc1c(C)cc(C)c(/C=C(/C#N)C(N)=O)c1C
> 40.5 | CSc1ccc(CNCc2ccco2)cc1.Cl

Compound | solubility kinetic [µg/mL]
N/C(=N/[N+](=O)[O-])N1CCN(C(=O)Oc2ccc([N+](=O)[O-])cc2)CC1 | > 50.7
CCCCn1c(=O)c(C(=O)Nc2ccccc2C)c(O)c2ccccc21 | < 0.4
